One molecule from paper PMC9181691, “Characterization of the Biomass Degrading Enzyme GuxA from Acidothermus cellulolyticus” (International Journal of Molecular Sciences, 2022) can be followed below.

This assay deals with T1, GuxA GH12 domain (Acidothermus cellulolyticus, UniProt A0LSH8).
T1 construct: gene Acel_0615; GH12 catalytic domain only (between CBM3 and CBM2 of full-length GuxA), codon optimized, C-terminal hexahistidine tag, pET22b(+), E. coli BL21(DE3), 24 kDa
The assay can be described thus: X-ray crystallography, crystal soak. The assay is classed as binding. Conditions: 24 h soak with excess cellobiose powder; crystals from 10% PEG 8K, 0.2 M ZnCl2, 0.1 M Na cacodylate pH 6.5; active site groove.

T1 sequence (A0LSH8 entry or part of it): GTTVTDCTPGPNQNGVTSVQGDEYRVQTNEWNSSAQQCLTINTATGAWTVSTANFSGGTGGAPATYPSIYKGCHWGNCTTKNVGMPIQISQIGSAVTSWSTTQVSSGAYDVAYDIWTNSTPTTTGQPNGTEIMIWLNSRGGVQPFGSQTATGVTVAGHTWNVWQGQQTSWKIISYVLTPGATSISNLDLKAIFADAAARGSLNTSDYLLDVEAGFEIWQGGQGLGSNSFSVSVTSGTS

`OC[C@H]1O[C@@H](O[C@H]2[C@H](O)[C@@H](O)C(O)O[C@@H]2CO)[C@H](O)[C@@H](O)[C@@H]1O` (stereo partly shown) [cellobiose]: the “X-ray crystallography, crystal soak” value is “A cellobiose molecule was found and modeled in the active site groove”.
